Experimental findings from patent publication EP2682119A1, “Aromatic N-heterocycle derivatives for use as medicine” (Université Libre de Bruxelles, priority 2012, dated 2014) are described below.

By IC50 is commonly meant the concentration needed to halve the response being measured. As a reminder, the Ki is a measure of affinity in units of concentration, obtained from inhibition or displacement.

Where a name gives a salt, the structure may show the parent alone. Read-outs that look alike come from different tables or passages of the source.

In one assay the target is T1, recombinant MPO (Homo sapiens, UniProt P05164).
T1 construct: made in house
T1 sequence (P05164 49-745): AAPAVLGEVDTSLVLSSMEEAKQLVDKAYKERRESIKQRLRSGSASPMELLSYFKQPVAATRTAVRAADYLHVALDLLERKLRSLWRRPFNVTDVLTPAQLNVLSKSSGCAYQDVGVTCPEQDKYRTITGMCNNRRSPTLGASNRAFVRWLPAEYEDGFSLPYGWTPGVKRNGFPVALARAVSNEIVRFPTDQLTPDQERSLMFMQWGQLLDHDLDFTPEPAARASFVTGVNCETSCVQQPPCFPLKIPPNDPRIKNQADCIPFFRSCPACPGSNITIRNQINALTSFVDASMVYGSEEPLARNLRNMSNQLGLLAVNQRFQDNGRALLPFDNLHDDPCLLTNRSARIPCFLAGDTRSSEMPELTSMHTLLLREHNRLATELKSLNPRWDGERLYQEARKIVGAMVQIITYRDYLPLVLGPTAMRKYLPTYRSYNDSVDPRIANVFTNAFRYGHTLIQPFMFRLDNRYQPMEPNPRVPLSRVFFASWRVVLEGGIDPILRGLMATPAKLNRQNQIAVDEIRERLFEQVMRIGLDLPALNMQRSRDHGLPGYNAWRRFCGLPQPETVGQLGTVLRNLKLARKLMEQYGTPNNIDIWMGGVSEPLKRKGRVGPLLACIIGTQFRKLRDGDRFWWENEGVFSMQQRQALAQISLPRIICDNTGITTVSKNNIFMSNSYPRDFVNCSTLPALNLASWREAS
As to the kind of experiment: Myeloperoxidase inhibition (MPO) assay, taurine chloramine production by the MPO/H2O2/Cl- system. It counts as biochemical. The note with it: for inhibition properties against myeloperoxidase enzyme: compared with the corresponding compound wherein the fluor atom is at position 5 on the indole ring. The procedure:
Myeloperoxidase inhibition (MPO) assay procedure
The assay was based on the production of taurine chloramine produced by the MPO/H2O2/Cl- system in the presence of a selected inhibitor at defined concentration. The reaction mixture contained the following reagents in a final volume of 200 µL: pH 7.4 phosphate buffer (10 mM PO4^3-/300 mM NaCl), taurine (15 mM), the compound to be tested (up to 20 µM), and the fixed amount of the recombinant MPO (6.6 µL of MPO batch solution diluted 2.5 times, 40 nM). When necessary, the volume was adjusted with water. This mixture was incubated at 37 °C and the reaction initiated with 10.0 µL of H2O2 (100 µM). After 5 min, the reaction was stopped by the addition of 10 µL of catalase (8 U/µL).
(§1) Recombinant MPO was prepared as previously described. Each batch solution is characterized by its protein concentration (mg/mL), its activity (U/mL), and its specific activity (U/mg). The chlorination activity was determined according to Hewson and Hager. […] The different steps were carried out in the dark, and the protein concentration was measured by the Lowry assay for both MPO and LDL.

The target of assay [1] is T2, LDL oxidation carried out by MPO (Homo sapiens, UniProt P05164).
T2 construct: made in house
T2 sequence (P05164 49-745): T1 sequence (P05164 49-745)
As to the kind of experiment: Inhibition of LDL oxidation by MPO, ELISA with Mab AG9. It counts as biochemical. On the procedure: Low-density lipoproteins oxidation inhibition
Preparation of the Recombinant Enzyme and of LDL
as §1
Inhibition of LDL Oxidation
LDL oxidation was carried out at 37 °C in a final volume of 500 µL. The reaction mixture contained the following reagents at the final concentrations indicated between brackets: pH 7.2, PBS buffer, MPO (1 µg/mL), LDL (1000 µg/mL), 2 µL 1 N HCl (4 mM), one of the drugs at different concentrations, and H2O2 (100 µM). The reaction was stopped after 5 min by cooling the tubes in ice. The assay was performed as described by Moguilevsky et al. in a NUNC maxisorp plate (VWR, Zaventem, Belgium): 200 ng/well of LDL was coated overnight at 4 °C in a sodium bicarbonate pH 9.8 buffer (100 µL) Afterward, the plate was washed with TBS 80 buffer and then saturated during 1 h at 37 °C with the PBS buffer containing 1% BSA (150 µL/well). […] After incubation for 1 h at 37 °C, the plate was washed four times with the TBS 80 buffer and a 3000 times diluted solution of IgG antimouse alkaline phosphatase (Promega, Leiden, The Netherlands) in the same buffer was added (100 µL/well). The wells were washed again four times and a revelation solution (150 µL/well) containing 5 mg of para-nitrophenyl phosphate in 5 mL of diethanolamine buffer was added for 30 min at room temperature. The reaction was stopped with 60 µL/well of 3 N NaOH solution. […] Results were expressed as IC50.
On the technique in general: In an ELISA, binding on a coated surface is turned into a signal by an enzyme label.

In assay [2] the target is T3, human 5-HT transporter (hSERT) (Homo sapiens, UniProt P31645).
T3 construct: expressed in transfected cells; host or cells: HEK-293 MSR cells (Invitrogen), plasmid pcDNA3.1-hSERT
T3 sequence (P31645 whole entry): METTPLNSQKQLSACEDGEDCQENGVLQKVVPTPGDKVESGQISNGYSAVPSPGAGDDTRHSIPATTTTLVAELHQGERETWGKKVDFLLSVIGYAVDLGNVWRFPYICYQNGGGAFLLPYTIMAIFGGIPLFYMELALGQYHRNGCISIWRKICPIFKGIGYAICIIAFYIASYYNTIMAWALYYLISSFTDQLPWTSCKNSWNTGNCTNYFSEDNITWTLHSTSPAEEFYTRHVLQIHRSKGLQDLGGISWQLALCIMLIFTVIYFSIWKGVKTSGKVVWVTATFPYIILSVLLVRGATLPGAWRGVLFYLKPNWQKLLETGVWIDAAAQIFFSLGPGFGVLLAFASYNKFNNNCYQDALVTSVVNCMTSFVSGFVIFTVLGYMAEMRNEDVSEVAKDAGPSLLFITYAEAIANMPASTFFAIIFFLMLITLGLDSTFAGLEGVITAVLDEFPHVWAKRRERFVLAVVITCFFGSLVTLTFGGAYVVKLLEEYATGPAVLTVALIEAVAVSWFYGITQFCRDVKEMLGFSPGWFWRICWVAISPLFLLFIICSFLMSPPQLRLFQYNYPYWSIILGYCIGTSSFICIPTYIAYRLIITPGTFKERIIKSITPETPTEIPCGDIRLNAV
As to the kind of experiment: 5-HT reuptake inhibition, [3H]5-HT uptake in transfected HEK-293 MSR cells. It counts as cell-based. The note with it: serotonin reuptake inhibition. On the procedure: Assesment of 5-HT reuptake inhibition.
Inhibition assessment of 5-HT reuptake was performed as follows. The mammalian expression plasmid pcDNA3.1 containing human 5-HT transporter (hSERT) cDNA has been described previously. HEK-293 MSR cells (Invitrogen) were cultured as monolayers in Dulbecco's modified Eagle's medium (BioWhitaker) supplemented with 10% fetal calf serum (Invitrogen), 100 units/mL penicillin, 100 µg/mL streptomycin (BioWhitaker) and 6 µg/mL Geneticin (Invitrogen) at 95% humidity, 5% p(CO2) and 37°C. Cells were detached from the culture flasks by Versene (Invitrogen) and trypsin/EDTA (BioWhitaker) treatment for subculturing or seeding into white TC-microtiter plates (Nunc). Transfection and measurement of [^3H]5-HT (PerkinElmer Life Sciences) uptake was performed as described by Larsen et al. (2004) except that HEK-293 MSR cells (Invitrogen) were used instead of COS-1 cells.

The mark [3] stands for this setting: inhibition of myeloperoxidase enzyme, Table 1, compounds of the invention, read-out: IC50.
Setting [4] is: inhibition of LDL oxidation, Table 2, read-out: IC50.
Where [5] appears, read: Table 3, 3-amidoindole analogues, read-out: MPO IC50.
Where [6] appears, read: Table 3, 3-amidoindole analogues, oxidation of LDL, read-out: Mox LDL IC50.

For the molecule `NCCc1c[nH]c2c(F)cccc12.O=C(O)C(=O)O` [Compound 26, 3-(2-Aminoethyl)-7-fluoro-1H-indole oxalate], the “inhibition properties against myeloperoxidase enzyme” value at recombinant MPO is “enhanced inhibition properties”.
In the case of `NCCCc1c[nH]c2c(F)cccc12.O=C(O)C(=O)O` [Compound 27, 3-(3-Aminopropyl)-7-fluoro-1H-indole oxalate], the “inhibition properties against myeloperoxidase enzyme” value on recombinant MPO is recorded as “enhanced inhibition properties”.
`NCCCCc1c[nH]c2c(F)cccc12` [Compound 30, 3-(4-Aminobutyl)-7-fluoro-1H-indole oxalate]: the IC50 at recombinant MPO (setting [3]) came to 6 nM; in assay [1] (setting [4]), 21 nM.
In the same order, the values of `NCCSCCc1c[nH]c2ccc(F)cc12` [Compound 32, 3-(2-(2-Aminoethylthio)ethyl)-5-fluoro-1H-indole oxalate] are 4 nM and 8 nM.
As to `NCCSCCCc1c[nH]c2ccc(F)cc12` [Compound 33, 3-(3-(2-Aminoethylthio)propyl)-5-fluoro-1H-indole oxalate], the IC50 in assay [1] (setting [4]) stood at 21 nM.
For `N#CSCCCc1c[nH]c2ccc(F)cc12` [Compound 34, 5-Fluoro-3-(3-thiocyanatopropyl) 1H-indole], the 50% inhibitory concentration (IC50) at recombinant MPO (setting [3]) is 5 nM; in assay [1] (setting [4]), 23 nM. The molecule further came in with a Ki in assay [2] of 212 nM.
For `CCN(CCc1c[nH]c2ccc(F)cc12)S(C)(=O)=O` [Compound 35, 5-Fluoro-3-(2-(N-ethylmethanesulfonamido)ethyl)-1H-indole], the IC50 on recombinant MPO (setting [3]) is 14 nM; in assay [1] (setting [4]) it was 27 nM. The affinity in assay [2] corresponds to a Ki of 174 nM.
On to `CCN(CCCc1c[nH]c2ccc(F)cc12)S(C)(=O)=O` [Compound 36, 5-Fluoro-3-(3-(N-ethylmethanesulfonamido)propyl)-1H-indole], for which the IC50 in assay [1] (setting [4]) was determined as 27 nM.
As for `NCCSCCc1c[nH]c2c(F)cccc12` [Compound 43, 3-(2-(2-Aminoethylthio)ethyl)-7-fluoro-1H-indole oxalate], the results for the IC50 (on recombinant MPO (setting [3]); in assay [1] (setting [4])) were 3 nM and 6 nM, respectively. This molecule also had a Ki in assay [2] of 25 nM.
Turning to `ONCCCc1c[nH]c2ccc(F)cc12` [Compound 45, 3-(3-N-Hydroxylaminopropyl)-5-fluoro-1H-indole], the IC50 was determined as 11 nM at recombinant MPO (setting [3]) and 21 nM in assay [1] (setting [4]). The molecule also had a Ki in assay [2] of 20 nM.
For `NC(=O)CCCc1c[nH]c2c(F)cccc12` [Compound 54, 3-(4-(butylamido))-7-fluoro-1H-indole], the IC50 at recombinant MPO (setting [5]) came to 26 nM; in assay [1] (setting [6]), 24 nM; in assay [1] (setting [4]) it was 24 nM.
As to `NC(=O)CCCc1c[nH]c2ccc(F)cc12` [Compound 56, 3-(4-(Butylamido))-5-fluoro-1H-indole], the IC50 (on recombinant MPO (setting [5]); at recombinant MPO (setting [3]); in assay [1] (setting [6]); in assay [1] (setting [4])) was 18 nM throughout. This molecule also showed a Ki in assay [2] of 631 nM.
Consider `NC(=O)CCCCc1c[nH]c2c(F)cccc12` [Compound 57, 3-(5-(pentylamido)) -7-fluoro-1H-indole], for which the figures for the IC50 (at recombinant MPO (setting [5]); in assay [1] (setting [6])) were 39 nM and 43 nM, respectively.
Regarding `NC(=O)CCCCc1c[nH]c2ccc(F)cc12` [Compound 58, 3-(5-(pentylamido)) -5-fluoro-1H-indole], the values for the IC50 (on recombinant MPO (setting [5]); in assay [1] (setting [6])) were 35 nM and 44 nM, respectively.
As for `CNC(=O)CCCc1c[nH]c2ccc(F)cc12` [Compound 59, 3-(4-(N-methyl, butylamido))-5-fluoro-1H-indole], the results for the half-maximal inhibitory concentration (IC50) (on recombinant MPO (setting [5]); in assay [1] (setting [6])) were 40 nM and 95 nM, respectively.
